Measurements reported in patent US20070093520A1, “Method of treatment of diarrhea-predominant irritable bowel syndrome in a subject” (priority 2005, published 2007).

System: diarrhea-predominant IBS subjects
Format: in vivo, human
Settings: TEAE incidence, 2 mg, Safety Population; PT
Method: The study was performed in approximately 150 study centers. Approximately 1600 eligible subjects were to be given cilansetron 2 mg TID. At Visit 1, pre-treatment assessments were conducted. […] Subjects were to return to the study site one month later for Visit 3 (Day 31) for their first interim assessment. […] All subjects who discontinued from the study were to have the same post-study assessments required at Visit 7 performed at their early termination visit. […]
Stool specimens were analyzed at every visit for occult blood. An independent GERB had been established to provide advice on GI AEs during the course of the study.
Adverse events were assessed at Baseline, at each clinic visit, and at the end of the study (Month 12 or the early termination visit). All AEs, which occurred during the study were followed up in accordance with good medical practice until resolved or judged no longer clinically significant, or if a condition was chronic, until fully characterized. Adverse events could occur in the specified follow-up period and, regardless of the interval since the last administration of the study medication, were treated in the same manner as an AE which occurred during the treatment with study medication. Each AE was evaluated for duration, severity, seriousness, and causal relationship to the investigational drug. The action taken and the outcome were also recorded.
Specifically, subjects who were lost to follow-up and had no post-Baseline contact with the site were excluded from the Safety population. The subjects who discontinued from the study due to lost to follow-up were identified based on the information collected on the study termination CRF page.
After the pretreatment assessment at Visit 1 (Days […] to −3), subjects were to return to the study site for a Baseline assessment and start the treatment at Visit 2 (Day 1).
For the by time-interval analyses of disposition, prevalence of AEs, and of markedly abnormal and predefined changes in laboratory values, vital signs, and ECGs, the following interval windows were used:
Adverse events that were already present prior to the first dose of cilansetron study medication but increased in severity afterwards were considered as treatment-emergent.
The 5% cutoff point was based on the incidence within higher level terms.
Subjects were counted at most once for each primary system organ class and preferred term. Serious AEs that resolved prior to receiving study medication or occurred more than 30 days after the last dose of study medication were not included in the incidence tables. A listing of all SAEs is presented; SAEs with onset prior to receiving study medication or more than 30 days after discontinuation of study medication were flagged. The listing presents lower level term and preferred term of the SAE, severity, action taken, outcome, and relationship of the SAE, start and stop date of the SAE, study day of onset of the SAE, age, race, and sex.

Cc1nccn1C[C@H]1CCc2c(c3cccc4c3n2CCC4)C1=O [cilansetron, (R)-(−)-4,5,6,8,9,10-hexahydro-10-[(2-methyl-1H-imidazol-1-yl)methyl]-11H-pyrido-[3,2,1-jk]-carbazol-11-one]
3 (<1%) n (%): Diabetes Mellitus NOS | Distension NOS | Eczema | Head Injury | Hyperlipidaemia NOS | Hypokalaemia | Joint Sprain | Laryngitis NOS
5 (<1%) n (%): Dyspnoea NOS | Dysuria | Maxillary Sinusitis
2 (<1%) n (%): Contusion | Coronary Artery Disease NOS | Dermatitis NOS | Difficulty in Micturition | Dysmenorrhoea* | Dyspnoea Exacerbated | Epistaxis | Erectile Dysfunction NOS* | Extrasystoles NOS | Face Injury | Fall | Foot Fracture | Groin Pain | Haematuria | Intervertebral Disc Herniation | Joint Stiffness | Joint Swelling | Laceration | Leukocyturia | Localised Osteoarthritis | Malaise | Monoarthritis | Mood Swings | Muscle Injury NOS | Muscle Spasms | Musculoskeletal Chest Pain | Nasal Congestion
26 (2%) n (%): Cough
7 (<1%) n (%): Muscle Strain
21 (1%) n (%): Depression
1 (<1%) n (%): Cervical Disc Lesion | Chest Discomfort | Chromaturia | Chronic Obstructive Airways Disease Exacerbated | Clavicle Fracture | Cystocele* | Dandruff | Depressed Mood | Dermatitis Contact | Diabetes Mellitus Non-Insulin-Dependent | Discoid Lupus Erythematosus | Dissociation | Dry Skin | Epidermal Cyst | Erythema | Fear of Falling | Fibula Fracture | Fluid Retention | Food Intolerance NOS | Forearm Fracture | Foreign Body in Eye | Genital Discharge | Genital Pain NOS | Glycosuria | Gout | Gynaecomastia* | Hand Fracture | Hangover | Heat Rash | Hoarseness | Hunger | Hypercholesterolaemia Aggravated | Hyperkalaemia | Hyponatraemia Aggravated | Inguinal Mass | Injury NOS | Joint Dislocation | Lethargy | Libido Decreased | Loin Pain | Loss of Libido | Major Depressive Disorder NOS | Menopausal Symptoms* | Menorrhagia* | Menses Delayed* | Mental Disorder NOS | Mood Alteration NOS | Muscle Tightness | Muscle Twitching | Musculoskeletal Discomfort | Musculoskeletal Pain | Nail Discolouration | Nail Disorder NOS | Nasal Ulcer | Neck Injury NOS | Neck Stiffness
20 (1%) n (%): Fatigue | Insomnia
6 (<1%) n (%): Depression Aggravated | Muscle Cramps
4 (<1%) n (%): Hyperglycaemia NOS | Hypotrichosis | Ligament Injury NOS | Myocardial Ischaemia
11 (<1%) n (%): Dermatitis Allergic | Myalgia
8 (<1%) n (%): Hypercholesterolaemia | Hypertriglyceridaemia | Influenza Like Illness | Limb Injury NOS | Neck Pain
12 (<1%) n (%): Chest Pain
